Data as given in paper PMC8966664 (Frontiers in Pharmacology, 2022).

Tests used:
[1] = target: T1, CYP2B2 (Rattus norvegicus, UniProt P04167); parameters: method as in Otten et al., 2011; conditions: CYP enzyme 2B2; cocktail probe substrate parameter, source not stated; ref Otten et al., 2011; cited from earlier work
T1 construct: and 1 mg/ml rat liver microsomes; from tissue; host or cells: rat liver microsomes
T1 sequence (P04167 1-491): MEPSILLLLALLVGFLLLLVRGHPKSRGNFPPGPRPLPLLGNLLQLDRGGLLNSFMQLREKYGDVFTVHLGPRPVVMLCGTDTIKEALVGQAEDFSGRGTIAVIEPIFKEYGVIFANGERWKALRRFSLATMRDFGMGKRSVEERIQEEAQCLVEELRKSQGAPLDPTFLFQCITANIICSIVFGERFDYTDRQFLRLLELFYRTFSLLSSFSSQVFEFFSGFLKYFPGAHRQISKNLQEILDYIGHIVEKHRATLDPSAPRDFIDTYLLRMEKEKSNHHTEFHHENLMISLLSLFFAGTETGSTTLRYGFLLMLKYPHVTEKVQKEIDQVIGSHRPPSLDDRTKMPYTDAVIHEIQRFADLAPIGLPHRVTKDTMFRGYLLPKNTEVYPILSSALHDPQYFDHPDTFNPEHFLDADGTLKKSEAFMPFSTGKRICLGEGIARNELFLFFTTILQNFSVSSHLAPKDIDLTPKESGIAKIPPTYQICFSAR

[2] = target: T2, CYP2A2 (Rattus norvegicus, UniProt P15149); parameters: method as in Otten et al., 2011; conditions: CYP enzyme 2A2; cocktail probe substrate parameter, source not stated; ref Otten et al., 2011; cited from earlier work
T2 construct: and 1 mg/ml rat liver microsomes; from tissue; host or cells: rat liver microsomes

[3] = target: T3, CYP2D1 (Rattus norvegicus, UniProt P10633); parameters: method as in Otten et al., 2011; conditions: CYP enzyme 2D1; cocktail probe substrate parameter, source not stated; ref Otten et al., 2011; cited from earlier work
T3 construct: and 1 mg/ml rat liver microsomes; from tissue; host or cells: rat liver microsomes
T3 sequence (P10633 1-504): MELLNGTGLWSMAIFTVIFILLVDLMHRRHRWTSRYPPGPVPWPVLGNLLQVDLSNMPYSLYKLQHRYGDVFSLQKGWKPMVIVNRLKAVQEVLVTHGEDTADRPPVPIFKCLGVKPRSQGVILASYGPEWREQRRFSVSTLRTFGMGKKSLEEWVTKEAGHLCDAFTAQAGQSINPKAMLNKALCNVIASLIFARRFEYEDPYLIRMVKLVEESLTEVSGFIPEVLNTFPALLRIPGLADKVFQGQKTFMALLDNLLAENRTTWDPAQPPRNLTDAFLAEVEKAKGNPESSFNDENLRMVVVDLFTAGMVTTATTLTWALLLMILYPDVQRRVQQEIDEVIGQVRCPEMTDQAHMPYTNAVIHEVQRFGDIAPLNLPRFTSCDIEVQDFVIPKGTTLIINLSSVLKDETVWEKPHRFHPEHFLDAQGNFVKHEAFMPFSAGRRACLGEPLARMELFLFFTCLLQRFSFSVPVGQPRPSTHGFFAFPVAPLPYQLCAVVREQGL

[4] = tested on: bacterial ß-D-glucuronidase; parameters: method as in Takeda et al., 1996; conditions: gastrointestinal tract, after oral administration; ref Takeda et al., 1996; cited from earlier work
[5] = tested on: rat liver microsomes; experiment: Formation of 7,9-diGS-DHP from RTS in rat liver microsomes; format: biochemical; conditions: KCZ 25 µM; 1 mg/ml rat liver microsomes, 200 µM RTS
Method: The injection volume was 3 μL. […] The injection volume was 5 µL.

[6] = tested on: CYP1A2; conditions: CYP enzyme 1A2; cocktail probe substrate parameter, source not stated; ref Otten et al., 2011; cited from earlier work
[7] = target: T4, CYP2C11 (Rattus norvegicus, UniProt P08683); parameters: method as in Otten et al., 2011; conditions: CYP enzyme 2C11; cocktail probe substrate parameter, source not stated; ref Otten et al., 2011; cited from earlier work
T4 construct: and 1 mg/ml rat liver microsomes; from tissue; host or cells: rat liver microsomes
T4 sequence (P08683 1-500): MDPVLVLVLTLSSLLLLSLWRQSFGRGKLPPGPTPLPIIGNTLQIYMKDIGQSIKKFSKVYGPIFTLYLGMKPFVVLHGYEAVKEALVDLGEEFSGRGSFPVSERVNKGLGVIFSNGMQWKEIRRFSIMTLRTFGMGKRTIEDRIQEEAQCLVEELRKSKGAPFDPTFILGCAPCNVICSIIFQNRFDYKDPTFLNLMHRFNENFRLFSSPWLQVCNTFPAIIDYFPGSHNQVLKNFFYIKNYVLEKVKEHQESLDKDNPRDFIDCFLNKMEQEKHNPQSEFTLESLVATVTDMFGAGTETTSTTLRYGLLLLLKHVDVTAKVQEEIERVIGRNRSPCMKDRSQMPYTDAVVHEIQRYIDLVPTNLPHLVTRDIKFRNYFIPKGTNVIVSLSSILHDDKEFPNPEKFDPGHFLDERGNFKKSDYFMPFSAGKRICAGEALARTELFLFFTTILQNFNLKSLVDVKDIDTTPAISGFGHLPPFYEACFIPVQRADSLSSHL

T2 sequence (P15149 whole entry): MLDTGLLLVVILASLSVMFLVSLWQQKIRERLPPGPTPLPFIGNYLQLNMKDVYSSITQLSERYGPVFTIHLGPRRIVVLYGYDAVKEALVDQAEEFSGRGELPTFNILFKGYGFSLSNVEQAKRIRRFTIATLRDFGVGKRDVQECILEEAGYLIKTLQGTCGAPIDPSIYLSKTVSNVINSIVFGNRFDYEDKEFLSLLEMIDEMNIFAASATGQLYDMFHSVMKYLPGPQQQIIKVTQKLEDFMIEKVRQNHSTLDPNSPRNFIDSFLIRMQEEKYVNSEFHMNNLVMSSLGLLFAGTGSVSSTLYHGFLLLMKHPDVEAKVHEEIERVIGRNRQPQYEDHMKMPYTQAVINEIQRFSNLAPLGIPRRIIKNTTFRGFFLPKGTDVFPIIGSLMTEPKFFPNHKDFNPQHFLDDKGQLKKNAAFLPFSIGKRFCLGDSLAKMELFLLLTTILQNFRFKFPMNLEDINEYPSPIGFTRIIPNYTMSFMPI

With `CC(NC(C)(C)C)C(=O)c1cccc(Cl)c1` (stereo not shown) [Bupropion] as the compound, how does the Km [1] read?
Its Km is 67 to 168 µM.

For `O=c1ccc2ccccc2o1` [Coumarin], which Km [2] is on record?
The Km was 0.3 to 2.3 µM.

With `COc1ccc2c(c1)[C@]13CCCC[C@@H]1[C@H](C2)N(C)CC3` [Dextromethorphan] as the compound, how does the Km [3] read?
Its Km is 0.4 to 8.5 µM.

With `CC1(C)[C@@H](O[C@H]2O[C@H](C(=O)O)[C@@H](O)[C@H](O)[C@H]2O[C@@H]2O[C@H](C(=O)O)[C@@H](O)[C@H](O)[C@H]2O)CC[C@]2(C)[C@H]3C(=O)C=C4[C@@H]5C[C@@](C)(C(=O)O)CC[C@]5(C)CC[C@@]4(C)[C@]3(C)CC[C@@H]12` [GL, Glycyrrhizin] as the compound, how does the “fraction of GL irreversibly transformed into 18β-GA” value [4] read?
The value was ~100%.

Which “reduction of the formation of 7,9-diGS-DHP” value [5] does the source give for `CC(=O)N1CCN(c2ccc(OCC3COC(Cn4ccnc4)(c4ccc(Cl)cc4Cl)O3)cc2)CC1` (stereo not shown) [KCZ, ketoconazole] here?
Its value is 62%.

For `CCOc1ccc(NC(C)=O)cc1` [Phenacetin], which Km [6] is on record?
Its Km is 1.7 to 152 µM.

For `CC[C@@]1(c2ccccc2)NC(=O)N(C)C1=O` [S-Mephenytoin], which Km [7] is on record?
Its Km is 13 to 35 µM.
